According to patent US20220119354A1, “DIAMINO-SUBSTITUTED PYRIDINES AND PYRIMIDINES AS HERBICIDES” (FMC Corporation, priority 2019, published 2022):

Key:
Format in all cases: in vivo
[1] = system: barnyardgrass (Echinochloa crus-galli); assay: Test A preemergence, barnyardgrass; conditions: 0 to 100 scale, 0 is no effect, 100 is complete control
In short: (§1)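 Pots of loam–sand mix; preemergence directed soil spray at sowing, postemergence spray at one- to two-leaf stage. Readout: visual injury vs untreated controls, ~10 d, 0–100 scale.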

kochia (Kochia scoparia) [2] = assay: Test A preemergence, kochia; conditions: 0 to 100 scale, 0 is no effect, 100 is complete control
In short: as §1

[3] = system: ragweed (common ragweed, Ambrosia elatior); assay: Test A preemergence, ragweed; conditions: 0 to 100 scale, 0 is no effect, 100 is complete control
In short: as §1

[4] = system: ryegrass, Italian (Lolium multiflorum); assay: Test A preemergence, Italian ryegrass; conditions: 0 to 100 scale, 0 is no effect, 100 is complete control
In short: as §1

[5] = system: foxtail, giant (Setaria faberii); assay: Test A preemergence, giant foxtail; conditions: 0 to 100 scale, 0 is no effect, 100 is complete control
In short: as §1

[6] = system: pigweed (Amaranthus retroflexus); assay: Test A preemergence, pigweed; conditions: 0 to 100 scale, 0 is no effect, 100 is complete control
In short: as §1

[7] = system: barnyardgrass (Echinochloa crus-galli); assay: Test A postemergence, barnyardgrass; conditions: 0 to 100 scale, 0 no effect, 100 complete control
In short: as §1

kochia (Kochia scoparia) [8] = assay: Test A postemergence, kochia; conditions: 0 to 100 scale, 0 no effect, 100 complete control
In short: as §1

[9] = system: ragweed (common ragweed, Ambrosia elatior); assay: Test A postemergence, ragweed; conditions: 0 to 100 scale, 0 no effect, 100 complete control
In short: as §1

[10] = system: ryegrass, Italian (Lolium multiflorum); assay: Test A postemergence, Italian ryegrass; conditions: 0 to 100 scale, 0 no effect, 100 complete control
In short: as §1

[11] = system: foxtail, giant (Setaria faberii); assay: Test A postemergence, giant foxtail; conditions: 0 to 100 scale, 0 no effect, 100 complete control
In short: as §1

[12] = system: pigweed (Amaranthus retroflexus); assay: Test A postemergence, pigweed; conditions: 0 to 100 scale, 0 no effect, 100 complete control
In short: as §1

[13] = system: wheat (Triticum aestivum); assay: Test A postemergence, wheat; conditions: 0 to 100 scale, 0 no effect, 100 complete control
In short: as §1

corn (Zea mays) = assay: Test A postemergence, corn; conditions: 0 to 100 scale, 0 no effect, 100 complete control
In short: as §1

[14] = system: blackgrass (Alopecurus myosuroides); assay: Test A postemergence, blackgrass; conditions: 0 to 100 scale, 0 no effect, 100 complete control
In short: as §1

[15] = system: galium (catchweed bedstraw, Galium aparine); assay: Test A postemergence, galium; conditions: 0 to 100 scale, 0 no effect, 100 complete control
In short: as §1

rice (Oryza sativa) = assay: Test B flooded paddy test, rice; conditions: Flood, 250 g ai/ha, applied to paddy water, 2-leaf stage, visual evaluation after 13 to 15 d
In short: (§2)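 Plants grown to 2-leaf stage. Compounds applied directly into paddy water flooded 3 cm above soil, with that depth kept throughout. After 13–15 d in greenhouse, visual rating versus controls on a 0–100 scale (0 no effect, 100 complete control).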

[16] = system: sedge, umbrella (small-flower umbrella sedge, Cyperus difformis); assay: Test B flooded paddy test, umbrella sedge; conditions: Flood, 250 g ai/ha, applied to paddy water, 2-leaf stage, visual evaluation after 13 to 15 d
In short: as §2

[17] = system: ducksalad (Heteranthera limosa); assay: Test B flooded paddy test, ducksalad; conditions: Flood, 250 g ai/ha, applied to paddy water, 2-leaf stage, visual evaluation after 13 to 15 d
In short: as §2

[18] = system: barnyardgrass (Echinochloa crus-galli); assay: Test B flooded paddy test, barnyardgrass; conditions: Flood, 250 g ai/ha, applied to paddy water, 2-leaf stage, visual evaluation after 13 to 15 d
In short: as §2

SMILES	Barnyardgrass plant response rating ([1]; 125 g ai/ha)	Barnyardgrass plant response rating ([1]; 500 g ai/ha)	Kochia plant response rating (kochia (Kochia scoparia) [2]; 125 g ai/ha)	Kochia plant response rating (kochia (Kochia scoparia) [2]; 500 g ai/ha)	Ragweed plant response rating ([3]; 125 g ai/ha)	Ragweed plant response rating ([3]; 500 g ai/ha)	Ryegrass, Italian plant response rating ([4]; 125 g ai/ha)	Ryegrass, Italian plant response rating ([4]; 500 g ai/ha)	Foxtail, Giant plant response rating ([5]; 125 g ai/ha)	Foxtail, Giant plant response rating ([5]; 500 g ai/ha)	Pigweed plant response rating ([6]; 125 g ai/ha)	Pigweed plant response rating ([6]; 500 g ai/ha)	Plant response rating, Barnyardgrass ([7]; 125 g ai/ha)	Plant response rating, Barnyardgrass ([7]; 500 g ai/ha)	Plant response rating, Kochia (kochia (Kochia scoparia) [8]; 125 g ai/ha)	Plant response rating, Kochia (kochia (Kochia scoparia) [8]; 500 g ai/ha)	Plant response rating, Ragweed ([9]; 125 g ai/ha)	Plant response rating, Ragweed ([9]; 500 g ai/ha)	Plant response rating, Ryegrass, Italian ([10]; 125 g ai/ha)	Plant response rating, Ryegrass, Italian ([10]; 500 g ai/ha)	further results
C[C@@H](Nc1nc(N)c(C(F)(F)F)c(C(F)(F)F)n1)c1cc2ccccc2s1 [Compound 59]	0	0	70	80	0	30	0	0	0	30	30	80	0	0	50	70	0	0	0	0	Plant response rating, Foxtail, Giant ([11]; 125 g ai/ha): 0; Plant response rating, Foxtail, Giant ([11]; 500 g ai/ha): 0; Plant response rating, Pigweed ([12]; 125 g ai/ha): 60; Plant response rating, Pigweed ([12]; 500 g ai/ha): 80; Plant response rating, Wheat ([13]; 125 g ai/ha): 0; Plant response rating, Wheat ([13]; 500 g ai/ha): 0; Plant response rating, Corn (corn (Zea mays); 125 g ai/ha): 0; Plant response rating, Corn (corn (Zea mays); 500 g ai/ha): 0; Plant response rating, Blackgrass ([14]; 125 g ai/ha): 0; Plant response rating, Blackgrass ([14]; 500 g ai/ha): 0; Plant response rating, Galium ([15]; 125 g ai/ha): 20; Plant response rating, Galium ([15]; 500 g ai/ha): 20; Plant response rating, Rice (0 to 100 scale, 0 is no effect, 100 is complete control) (rice (Oryza sativa)): 0; Plant response rating, Sedge, Umbrella (0 to 100 scale, 0 is no effect, 100 is complete control) [16]: 0; Plant response rating, Ducksalad (0 to 100 scale, 0 is no effect, 100 is complete control) [17]: 0; Plant response rating, Barnyardgrass (0 to 100 scale, 0 is no effect, 100 is complete control) [18]: 0
C[C@H](Nc1nc(N)c(C(F)(F)F)c(C(F)(F)F)n1)c1cc2ccccc2s1 [Compound 60]	0	50	0	0	0	0	0	20	0	0	0	0	0	50	30	100	20	60	0	0	Plant response rating, Foxtail, Giant ([11]; 125 g ai/ha): 20; Plant response rating, Foxtail, Giant ([11]; 500 g ai/ha): 50; Plant response rating, Pigweed ([12]; 125 g ai/ha): 50; Plant response rating, Pigweed ([12]; 500 g ai/ha): 90; Plant response rating, Wheat ([13]; 125 g ai/ha): 0; Plant response rating, Wheat ([13]; 500 g ai/ha): 0; Plant response rating, Corn (corn (Zea mays); 125 g ai/ha): 0; Plant response rating, Corn (corn (Zea mays); 500 g ai/ha): 0; Plant response rating, Blackgrass ([14]; 125 g ai/ha): 0; Plant response rating, Blackgrass ([14]; 500 g ai/ha): 20; Plant response rating, Galium ([15]; 125 g ai/ha): 30; Plant response rating, Galium ([15]; 500 g ai/ha): 40; Plant response rating, Rice (0 to 100 scale, 0 is no effect, 100 is complete control) (rice (Oryza sativa)): 0; Plant response rating, Sedge, Umbrella (0 to 100 scale, 0 is no effect, 100 is complete control) [16]: 0; Plant response rating, Ducksalad (0 to 100 scale, 0 is no effect, 100 is complete control) [17]: 0; Plant response rating, Barnyardgrass (0 to 100 scale, 0 is no effect, 100 is complete control) [18]: 0
